# Patent publication US20250073189A1, “NATURAL DIETARY SUPPLEMENT FOR MENTAL HEALTH” (Mind Pop LLC, priority 2023, published 2025)
# What was measured:
# [1] = Inventors' unspecified tests and research on single ingredients of the supplement; assay type: in vivo
# Text: Caffeine is far and away the most widely known compound in the composition, however, the present invention uses the caffeine as a clean source of energy to go along with methylliberine and theacrine.
# [2] = Inventors' dose testing of theacrine (50-400 mg); assay type: in vivo; settings: according to research and trials; unlike caffeine
# Experimental: Theacrine advances the beneficial effects of the compounds of this invention in unexpected ways. […] Throughout the studies pertaining to this invention, it has been discovered that low blood pressure is paramount for the proper firing of synapses and proper chemical balance in the brain. Testing in doses from 50-400 mg of theacrine have narrowed the optimum range to 125-150 mg, and more particularly about 140 mg. […] This is made possible by the waste removal from phosphatidylserine and enhanced by alpha-glycerylphosphorylcholine which spreads these effects beyond the brain, throughout the entire body.
compound,measurement,setting,value
"Cn1c(=O)c2c(ncn2C)n(C)c1=O [Caffeine, reference compound]",cognitive effects,[1]; 70 mg of caffeine,tremendous cognitive effects
Phosphatidylserine,"effectiveness as supplementary ingredient (membrane functions, nutrient entry, cortisol modulation, waste exit)",[1]; in vivo,unexpectedly effective
COc1nc2c(c(=O)n1C)n(C)c(=O)n2C [Methylliberine],energy boost in combination with the other ingredients,"[1]; at precisely 140 mg, with caffeine and theacrine",unexpected energy boost
"C[N+](C)(C)CCOP(=O)([O-])OC[C@H](O)CO [alpha-glycerylphosphorylcholine, Alpha-glycerylphosphorylcholine]",effect on muscular output and reaction times,[1]; many tests and much research,increase muscular output and reaction times
Cn1c(=O)c2c(n(C)c1=O)n(C)c(=O)n2C [Theacrine],effect on blood pressure,[2],does not seem to significantly affect blood pressure
